“Also recorded” adds a separate entry of the source.
Assays:
[1] = Testing of acute toxicity, intravenous administration; conditions: male, Crj:CD1, mouse, in vivo, mice, observed up to 7 days, read-out: Maximum Tolerated Dose
Method: Acute toxicity of the inventive compounds was determined employing mice by intravenous administration. Male Crj:CD1 mice were used and divided into groups of 4 mice, with an average weight of each group of 30-34 g. Each compound was dissolved in saline, 1N HCl, or a mixture of 1N HCl/polyethylene glycol 400, and then diluted with distilled water for injection, and administered via tail vein. Up to 7 days after administration, observations were made.

[2] = Testing of blood-brain barrier permeability; type: in vivo; conditions: mice, two minutes after intravenous administration
Method: Compounds of the present invention were intravenously administered to mice to determine their in vivo blood-brain barrier permeability. • (1) Mice utilized S1c:ICR weighing 30-40 g (7 weeks old, n=3) (Nippon SLC). • (2) A test compound was dissolved in 1N HCl, and then diluted with purified water, and injected via tail vein. Two minutes after administration, the mice, under ether anesthesia, were subjected to taking blood from the abdominal aorta with a heparin-treated syringe and removing the brain. • (3) After taking blood, blood samples were centrifuged at 14,000 rpm at 4° C. for 10 minutes, and their supernatants were kept at −80° C. as plasma sample. The brain (including cerebellum) was kept at −80° C. after its removal. • (4) The plasma sample, when used, was thawed, diluted with purified water, and then applied to a conditioned C18 solid-phase extraction cartridge (bond elute C18, 200 mg, Lot. 070864, Varian), followed by elution with methyl alcohol. • (5) The brain material, when used, were subjected to measuring its wet weight with the brain remaining frozen, and saline was added for homogenization. The homogenate was centrifuged for 10 minutes, and the supernatant was applied to a conditioned C18 solid-phase extraction cartridge and eluted with methyl alcohol. • (6) The test compound was detected at its maximum absorbance (a UV/VIS detector, Waters) and fluorescence (an FS-8020 fluorometer, Tosoh) employing high performance liquid chromatography. • (7) For each of the plasma and brain, the content of the test compound in the plasma or brain (%ID (injected dose)/ml or g) was determined, relative to the administered-dose.

[3] = target: T1, Aβ1-40 taking β-sheet structures (Homo sapiens, UniProt P05067); test: Binding to amyloid β-protein on slides; conditions: Aβ1-40 on slides; 1 μM solution of test chemical
T1 construct: Aβ1-40 (Peptide Institute, Inc., Lot No. 520311, MW: 4329.8); purchased Peptide Institute, Inc. Lot No. 520311
Method: Properties of binding to amyloid β-protein were examined as follows: • (1) Aβ1-40 (Peptide Institute, Inc., Lot No. 520311, MW: 4329.8) was dissolved in 50 mM potassium phosphate buffer (pH 7.4) at a concentration of 500 μM, and incubated at 37° C. for 3 days or longer, thereby making the protein take β-sheet structures. • (2) After incubation, the Aβ solution was vortexed and diluted to 50 μM for use. • (3) 20 μl of the Aβ1-40 solution was dropped onto a poly-L-lysine-coated slide (MICRO SLIDE GLASS S7441, […]) and dried on an extender (Sakura PS-C2) at about 45° C. • (4) The Aβ1-40 on the slide was covered with 20 μl of 1 μM solution of a chemical to be tested, allowed to stand at room temperature for about 10 minutes, and then washed with a stream of water (tap water), followed by examination under a microscope.

[4] = test system: neurofibrillary tangles (or phosphorylated tau protein); test: Staining of neurofibrillary tangles in brain sections of a patient with Alzheimer's disease (screening method); type: binding, human; conditions: for staining of neurofibrillary tangles (or phosphorylated tau protein): brain/hippocampus sections of Alzheimer's disease patient, 100 μM compound in 50% ethanol, fluorescence microscopy, compared with thioflavin S on adjacent section
Description: (§1) The following explanation is made about a method for screening the inventive compounds. • (1) Temporal lobe or hippocampus specimens of the brain of a patient who had been definitely diagnosed pathologically as Alzheimer's disease and of a normal aged individual were used. These specimens were provided from Fukushimura Hospital, our joint research facility, with the consent to their use for research purpose received from the bereaved family of the patient (BF Research Laboratories Institutional Ethics Board Permission No. RS-99-02). • (2) The brain tissues embedded in paraffin were sliced 6 or 8 μm thick, extended on slides, and dried. The paraffin-embedded brain sections were deparaffined by washing sequentially with xylene (10 minutes, twice), 100% ethanol (5 minutes, twice), 95% ethanol (5 minutes, twice), and a stream of water (10 minutes). • (3) Pre-treatment for staining with compounds of the present invention involved treating the sections for eliminating self-fluorescence due to lipofuscin. First, the deparaffined sections were immersed into a 10% formalin solution for 60 minutes and washed with PBS (phosphate-buffered saline) for 5 minutes, followed by immersion into a 0.25% solution of KMnO4 for 90 minutes. After washing twice with PBS for 2 minutes each, the sections were immersed into a solution of 0.1% K2S2O5/oxalic acid for about 30 seconds each, and then washed three times with PBS for 2 minutes each. • (4) About 150 μl of a 100 μM solution of a compound of the present invention dissolved in 50% ethanol was added dropwise onto the sections and allowed the reaction to be carried out for 10 minutes. The sections were dipped into tap water five times, and then 50% ethanol three to five times, followed by immediate classification. After that, the sections were immersed into PBS for 60 minutes, enclosed with Fluor Save Reagent (Calbiochem), and examined under UV-B excitation using a fluorescent microscope (Nikon, Eclips E800). Pictures were taken using a digital camera (Plaroid [sic] PDMCII).
Immunostaining was carried out as follows: • (1) After the sections were deparaffined, the sections were washed twice with distilled water for 2 minutes each, tissues were marked with an Immunopen. About 150 μl of 3% hydrogen peroxide (diluted in methanol) was added dropwise and allowed to stand at room temperature for 10 minutes. • (2) The sections were-washed twice with cold PBS-Tween 20 for 5 minutes each, and two drops of blocking serum were added and allowed the reaction to be carried out at 37° C. for 30 minutes. Excess water was removed, and two drops of pSer422, an antibody specific to phosphorylated tau (Wako Phosphorylated Tau Immunohistostain Kit 299-57301) and allowed the reaction to be carried out overnight at 4° C. • (3) On the next day, the sections were washed five times with cold PBS-Tween 20 for 2 minutes each, and two drops of a solution of goat anti-rabbit IgG conjugated to biotin were added and allowed the reaction to be carried out at 37° C. for 1 hour. […]

senile plaques = test: Staining of senile plaques in hippocampus sections of the brain of a patient with Alzheimer's disease; type: binding, human; conditions: compared with thioflavin S on adjacent section
Description: as §1

T1 sequence (P05067 672-711 limits assumed): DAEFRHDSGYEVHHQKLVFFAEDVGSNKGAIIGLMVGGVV

## CNc1ccc(-c2ccc3ccccc3n2)cc1 [BF-158, 2-(4-(methylamino)phenyl)quinoline]
[1]
  MTD at 7 days: ≥ 10 mg/kg
[2]
  Brain content (blood-brain barrier permeability): 9.7 % ID/g or ml
  Plasma content: 1.8 % ID/g or ml

## Nc1ccc(-c2ccc3ccccc3n2)cc1 [BF-170, 2-(4-(amino)phenyl)quinoline]
[1]
  MTD at 7 days: ≥ 10 mg/kg
[3]
  binding to Aβ1-40 taking β-sheet structures (fluorescence): hardly bound to this Aβ1-40 (fluorescence was not observed); also recorded: hardly bound to the Aβ1-40 protein (fluorescence was not observed)
[4]
  staining of neurofibrillary tangles (or phosphorylated tau protein): stained only neurofibrillary tangles (or phosphorylated tau protein)
[4]; hippocampus sections of Alzheimer's disease patient, adjacent section immunostained with pSer422
  staining of phosphorylated tau protein recognized by pSer422 antibody: stained phosphorylated tau protein which was recognized by pSer422
[2]
  Brain content (blood-brain barrier permeability): 9.1 % ID/g or ml
  Plasma content: 1.4 % ID/g or ml
Senile plaques
  staining of senile plaques: stained only neurofibrillary tangles (or phosphorylated tau protein)

## CN(C)c1ccc(-c2ccc3ccccc3n2)cc1 [Compound N-310, 2-(4-(dimethylamino)phenyl)quinoline]
[4]
  staining of neurofibrillary tangles (or phosphorylated tau protein): stained neurofibrillary tangles (or phosphorylated tau protein)
[2]
  Brain content (blood-brain barrier permeability): 15.0 % ID/g or ml
  Plasma content: 1.0 % ID/g or ml

## CCN(CC)c1ccc(-c2ccc3ccccc3n2)cc1 [Compound N-313, 2-(4-(diethylamino)phenyl)quinoline]
[1]
  MTD at 7 days: ≥ 10 mg/kg
[4]
  staining of neurofibrillary tangles (or phosphorylated tau protein): stained neurofibrillary tangles (or phosphorylated tau protein)
[2]
  Brain content (blood-brain barrier permeability): 4.6 % ID/g or ml
  Plasma content: 1.1 % ID/g or ml

## Cc1ccc2ccc(-c3ccc(N(C)C)cc3)nc2c1 [SA-820, 2-(4-(dimethylamino)phenyl)-7-methylquinoline]
Senile plaques
  staining of senile plaques: stained senile plaques (wedge-shaped arrowheads) with a clearly weaker degree than that of thioflavin S; also recorded: stained senile plaques (wedge-shaped arrowheads) with a clearly-weaker degree than that of thioflavin S

## CN(C)c1ccc(-c2ccc3c(ccc4ccccc43)n2)cc1 [SA-821, 3-(4-(dimethylamino)phenyl)benzo(f)quinoline]
Senile plaques
  staining of senile plaques: stained senile plaques (wedge-shaped arrowheads) with a clearly weaker degree than that of thioflavin S

## Cc1ccc2c(c1)sc(-c1ccc(N(C)C)cc1)[n+]2C.[Cl-] [thioflavin T, reference compound]
[3]
  binding to Aβ1-40 taking β-sheet structures (fluorescence): significant binding to this Aβ1-40; also recorded: significant binding to the Aβ1-40 protein

## thioflavin S [reference compound]
[4]
  staining of neurofibrillary tangles (or phosphorylated tau protein): stained both senile plaques (wedge-shaped arrowheads) and neurofibrillary tangles (or phosphorylated tau protein); also recorded: stained both senile plaques and neurofibrillary tangles
Senile plaques
  staining of senile plaques: stained both senile plaques (wedge-shaped arrowheads) and neurofibrillary tangles (or phosphorylated tau protein); also recorded: stained both senile plaques and neurofibrillary tangles

Reference: patent publication US20050009865A1, “Quinoline derivative as diagnostic probe for disease with tau protein accumulation” (priority 2002, published 2005)
